# Columns and labels:
# Experiment in all cases: radiometric filter-binding kinase assay, Kinase HotSpot
# Details in all cases: compound 0.5 µM; ATP 10 µM
# ACVR1 (human) = ACVR1 (human) (UniProt Q04771)
# ACVRL1 (human) = ACVRL1 (human) (UniProt P37023)
# AURKB (human) = AURKB (human) (UniProt Q96GD4)
# CAMK1 (human) = CAMK1 (human) (UniProt Q14012)
# CDK4 CCND1 (human) = CDK4 CCND1 (human) (UniProt P24385+P11802)
# CDK5 CDK5R1 p25 (human) = CDK5 CDK5R1 p25 (human) (UniProt Q00535+Q15078)
# CLK1 (human) = CLK1 (human) (UniProt P49759)
# CSNK1G2 (human) = CSNK1G2 (human) (UniProt P78368)
# DYRK4 (human) = DYRK4 (human) (UniProt Q9NR20)
# EPHA5 (human) = EPHA5 (human) (UniProt P54756)
# EPHB1 (human) = EPHB1 (human) (UniProt P54762)
# EPHB3 (human) = EPHB3 (human) (UniProt P54753)
# HIPK2 (human) = HIPK2 (human) (UniProt Q9H2X6)
# IKBKE (human) = IKBKE (human) (UniProt Q14164)
# JAK3 JH1 JH2 (human) = JAK3 JH1 JH2 (human) (UniProt P52333)
# MAP2K2 (human) = MAP2K2 (human) (UniProt P36507)
# MAP3K14 (human) = MAP3K14 (human) (UniProt Q99558)
# MAP3K2 (human) = MAP3K2 (human) (UniProt Q9Y2U5)
# MAP3K3 (human) = MAP3K3 (human) (UniProt Q99759)
# MAP3K7 TAB1 (human) = MAP3K7 TAB1 (human) (UniProt O43318+Q15750)
# MAP4K4 (human) = MAP4K4 (human) (UniProt O95819)
# MAP4K5 (human) = MAP4K5 (human) (UniProt Q9Y4K4)
# MAPK10 (human) = MAPK10 (human) (UniProt P53779)
# MARK3 (human) = MARK3 (human) (UniProt P27448)
# MINK1 (human) = MINK1 (human) (UniProt Q8N4C8)
# PIM1 (human) = PIM1 (human) (UniProt P11309)
# PLK3 (human) = PLK3 (human) (UniProt Q9H4B4)
# PRKCA (human) = PRKCA (human) (UniProt P17252)
# PRKCB2 (human) = PRKCB2 (human) (UniProt P05771)
# PRKCH (human) = PRKCH (human) (UniProt P24723)
# PRKX (human) = PRKX (human) (UniProt P51817)
# PTK6 (human) = PTK6 (human) (UniProt Q13882)
# [1] = test system: SGK1 (human), O00141 [S422D]
# SLK (human) = SLK (human) (UniProt Q9H2G2)
# SRPK1 (human) = SRPK1 (human) (UniProt Q96SB4)
# SRPK3 (human) = SRPK3 (human) (UniProt Q9UPE1)
# STK16 (human) = STK16 (human) (UniProt O75716)
# TBK1 (human) = TBK1 (human) (UniProt Q9UHD2)
# TEC (human) = TEC (human) (UniProt P42680)
# TTK (human) = TTK (human) (UniProt P33981)
# TYRO3 (human) = TYRO3 (human) (UniProt Q06418)
# WNK3 (human) = WNK3 (human) (UniProt Q9BYP7)
# Chain of HIPK2 (human) (Q9H2X6 whole entry, looked up): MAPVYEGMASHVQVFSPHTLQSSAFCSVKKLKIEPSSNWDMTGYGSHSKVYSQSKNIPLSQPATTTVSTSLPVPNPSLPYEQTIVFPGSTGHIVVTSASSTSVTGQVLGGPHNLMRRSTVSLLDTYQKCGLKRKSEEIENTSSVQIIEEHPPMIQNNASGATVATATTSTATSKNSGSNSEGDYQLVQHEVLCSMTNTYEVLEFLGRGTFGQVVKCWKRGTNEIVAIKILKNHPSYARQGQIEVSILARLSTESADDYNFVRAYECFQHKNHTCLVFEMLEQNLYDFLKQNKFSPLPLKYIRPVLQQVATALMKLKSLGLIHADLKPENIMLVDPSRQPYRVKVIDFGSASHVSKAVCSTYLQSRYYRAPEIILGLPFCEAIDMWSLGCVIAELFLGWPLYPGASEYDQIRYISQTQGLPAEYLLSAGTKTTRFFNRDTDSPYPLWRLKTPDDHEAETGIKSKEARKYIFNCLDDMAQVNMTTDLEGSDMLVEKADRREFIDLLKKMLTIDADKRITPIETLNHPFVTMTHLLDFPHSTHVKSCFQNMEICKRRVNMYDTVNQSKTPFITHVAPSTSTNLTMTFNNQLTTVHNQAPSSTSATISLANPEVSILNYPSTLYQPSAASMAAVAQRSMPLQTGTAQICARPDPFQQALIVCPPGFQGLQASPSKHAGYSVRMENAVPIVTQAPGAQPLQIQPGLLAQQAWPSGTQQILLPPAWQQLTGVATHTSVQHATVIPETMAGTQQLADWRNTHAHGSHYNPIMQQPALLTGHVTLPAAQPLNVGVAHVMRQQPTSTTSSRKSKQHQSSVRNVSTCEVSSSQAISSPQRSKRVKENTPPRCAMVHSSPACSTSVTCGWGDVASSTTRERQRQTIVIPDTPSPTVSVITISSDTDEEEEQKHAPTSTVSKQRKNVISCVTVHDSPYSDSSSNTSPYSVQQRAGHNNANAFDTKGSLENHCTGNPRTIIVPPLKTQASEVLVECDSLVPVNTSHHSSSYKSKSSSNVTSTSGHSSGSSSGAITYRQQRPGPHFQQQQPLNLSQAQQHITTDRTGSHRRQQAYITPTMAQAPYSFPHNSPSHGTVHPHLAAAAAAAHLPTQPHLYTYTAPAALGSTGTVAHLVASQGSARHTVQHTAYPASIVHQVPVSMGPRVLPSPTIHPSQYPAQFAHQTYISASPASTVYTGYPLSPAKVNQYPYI
# Chain of ACVRL1 (human) (P37023 whole entry, looked up): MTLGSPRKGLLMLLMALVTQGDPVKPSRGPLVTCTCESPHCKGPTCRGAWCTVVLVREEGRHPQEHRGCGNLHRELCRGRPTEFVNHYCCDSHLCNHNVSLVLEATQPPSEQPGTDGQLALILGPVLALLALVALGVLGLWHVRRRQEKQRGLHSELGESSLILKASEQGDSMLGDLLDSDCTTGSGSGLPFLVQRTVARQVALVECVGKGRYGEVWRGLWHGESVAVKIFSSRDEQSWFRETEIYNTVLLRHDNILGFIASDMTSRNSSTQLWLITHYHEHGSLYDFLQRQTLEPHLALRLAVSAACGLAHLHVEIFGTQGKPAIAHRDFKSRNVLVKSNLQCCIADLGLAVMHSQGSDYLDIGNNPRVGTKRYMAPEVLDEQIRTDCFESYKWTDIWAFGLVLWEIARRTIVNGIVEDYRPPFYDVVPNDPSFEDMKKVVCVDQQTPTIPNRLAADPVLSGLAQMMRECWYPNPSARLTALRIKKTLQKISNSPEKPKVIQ
# Chain of MAP4K5 (human) (Q9Y4K4 whole entry, looked up): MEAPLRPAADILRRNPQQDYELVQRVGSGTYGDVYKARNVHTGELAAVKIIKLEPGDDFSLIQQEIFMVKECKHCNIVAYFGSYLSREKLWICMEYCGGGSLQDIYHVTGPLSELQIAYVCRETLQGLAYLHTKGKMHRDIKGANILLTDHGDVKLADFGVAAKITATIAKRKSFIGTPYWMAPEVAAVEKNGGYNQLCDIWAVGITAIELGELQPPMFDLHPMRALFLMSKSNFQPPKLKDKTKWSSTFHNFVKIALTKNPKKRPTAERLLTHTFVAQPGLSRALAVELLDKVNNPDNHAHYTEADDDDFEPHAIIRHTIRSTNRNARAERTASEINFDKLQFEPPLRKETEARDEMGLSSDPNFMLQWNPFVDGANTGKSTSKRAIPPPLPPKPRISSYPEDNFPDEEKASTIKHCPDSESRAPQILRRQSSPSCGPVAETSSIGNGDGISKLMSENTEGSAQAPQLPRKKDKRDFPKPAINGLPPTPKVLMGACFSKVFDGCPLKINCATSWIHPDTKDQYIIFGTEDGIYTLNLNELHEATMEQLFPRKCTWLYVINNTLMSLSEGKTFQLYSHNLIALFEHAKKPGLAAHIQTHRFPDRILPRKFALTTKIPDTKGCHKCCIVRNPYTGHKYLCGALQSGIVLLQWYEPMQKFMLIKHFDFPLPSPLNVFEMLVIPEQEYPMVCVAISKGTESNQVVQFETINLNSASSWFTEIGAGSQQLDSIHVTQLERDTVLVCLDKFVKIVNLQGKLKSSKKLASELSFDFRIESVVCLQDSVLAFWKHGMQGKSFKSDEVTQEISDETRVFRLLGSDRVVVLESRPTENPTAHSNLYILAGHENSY
# Chain of IKBKE (human) (Q14164 whole entry, looked up): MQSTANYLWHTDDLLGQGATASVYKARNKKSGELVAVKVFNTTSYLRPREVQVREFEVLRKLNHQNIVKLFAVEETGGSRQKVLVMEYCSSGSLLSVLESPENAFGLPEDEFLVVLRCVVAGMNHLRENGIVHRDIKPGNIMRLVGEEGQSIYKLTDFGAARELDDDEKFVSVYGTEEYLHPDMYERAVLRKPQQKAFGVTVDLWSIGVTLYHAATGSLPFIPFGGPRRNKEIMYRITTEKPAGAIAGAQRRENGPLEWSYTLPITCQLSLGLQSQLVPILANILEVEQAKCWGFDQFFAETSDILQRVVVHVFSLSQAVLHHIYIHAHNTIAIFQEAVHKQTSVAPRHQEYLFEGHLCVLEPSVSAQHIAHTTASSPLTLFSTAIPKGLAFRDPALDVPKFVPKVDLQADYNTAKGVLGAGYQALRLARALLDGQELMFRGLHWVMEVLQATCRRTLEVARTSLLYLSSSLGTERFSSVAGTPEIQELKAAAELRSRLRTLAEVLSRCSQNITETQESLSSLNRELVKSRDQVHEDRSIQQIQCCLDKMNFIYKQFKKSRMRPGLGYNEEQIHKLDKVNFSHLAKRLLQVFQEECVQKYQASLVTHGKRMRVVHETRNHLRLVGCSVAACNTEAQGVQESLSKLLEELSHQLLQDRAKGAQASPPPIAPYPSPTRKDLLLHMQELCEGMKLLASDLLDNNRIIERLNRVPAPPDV
# Chain of EPHB3 (human) (P54753 whole entry, looked up): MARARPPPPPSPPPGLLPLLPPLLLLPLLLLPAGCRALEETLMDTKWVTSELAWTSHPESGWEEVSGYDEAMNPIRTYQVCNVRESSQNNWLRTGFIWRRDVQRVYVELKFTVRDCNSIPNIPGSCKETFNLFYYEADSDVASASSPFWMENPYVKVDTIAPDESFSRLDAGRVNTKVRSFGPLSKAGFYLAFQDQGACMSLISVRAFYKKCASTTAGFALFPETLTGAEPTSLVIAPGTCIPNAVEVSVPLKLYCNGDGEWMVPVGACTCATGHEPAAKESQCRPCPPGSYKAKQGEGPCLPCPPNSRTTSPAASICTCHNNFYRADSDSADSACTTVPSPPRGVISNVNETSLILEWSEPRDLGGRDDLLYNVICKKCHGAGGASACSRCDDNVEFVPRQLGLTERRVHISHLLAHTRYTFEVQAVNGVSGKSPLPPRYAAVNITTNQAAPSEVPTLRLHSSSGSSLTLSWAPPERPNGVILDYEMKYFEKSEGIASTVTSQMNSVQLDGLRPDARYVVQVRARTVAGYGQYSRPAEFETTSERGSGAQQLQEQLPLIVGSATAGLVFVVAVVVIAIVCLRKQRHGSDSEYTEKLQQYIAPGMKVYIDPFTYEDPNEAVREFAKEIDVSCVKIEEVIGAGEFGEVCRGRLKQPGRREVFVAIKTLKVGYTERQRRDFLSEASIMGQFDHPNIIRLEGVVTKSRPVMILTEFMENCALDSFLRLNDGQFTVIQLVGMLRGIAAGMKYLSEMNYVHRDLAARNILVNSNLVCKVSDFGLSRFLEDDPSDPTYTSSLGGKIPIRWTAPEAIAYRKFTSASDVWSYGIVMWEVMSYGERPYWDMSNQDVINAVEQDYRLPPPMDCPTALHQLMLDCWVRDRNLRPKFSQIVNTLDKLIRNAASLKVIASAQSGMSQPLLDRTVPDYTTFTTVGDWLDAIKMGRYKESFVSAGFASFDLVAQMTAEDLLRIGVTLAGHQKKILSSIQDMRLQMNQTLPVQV
# Chain of PLK3 (human) (Q9H4B4 whole entry, looked up): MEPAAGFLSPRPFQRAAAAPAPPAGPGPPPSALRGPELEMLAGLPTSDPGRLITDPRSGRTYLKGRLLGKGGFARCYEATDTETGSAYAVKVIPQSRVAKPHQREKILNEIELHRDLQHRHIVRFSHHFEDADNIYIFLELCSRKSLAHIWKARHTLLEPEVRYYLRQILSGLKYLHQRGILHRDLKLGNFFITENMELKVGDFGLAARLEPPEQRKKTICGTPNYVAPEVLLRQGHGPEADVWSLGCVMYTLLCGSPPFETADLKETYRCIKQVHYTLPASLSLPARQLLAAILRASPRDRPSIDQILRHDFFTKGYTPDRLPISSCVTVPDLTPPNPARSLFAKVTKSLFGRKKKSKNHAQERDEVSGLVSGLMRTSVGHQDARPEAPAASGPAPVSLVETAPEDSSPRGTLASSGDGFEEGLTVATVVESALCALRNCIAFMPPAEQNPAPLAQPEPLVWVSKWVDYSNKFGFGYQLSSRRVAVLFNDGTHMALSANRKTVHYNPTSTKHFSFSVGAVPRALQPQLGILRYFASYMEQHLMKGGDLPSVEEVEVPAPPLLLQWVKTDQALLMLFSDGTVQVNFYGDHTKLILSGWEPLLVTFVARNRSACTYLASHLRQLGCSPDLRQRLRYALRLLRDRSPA
compound,measurement,setting,value
Cn1cc(/C=C2\C(=O)Nc3ccc(S(N)(=O)=O)cc32)c2ccccc21,residual activity,ACVR1 (human),111%
same,residual activity,ACVRL1 (human),99.1%
same,residual activity,AURKB (human),10.5%
same,residual activity,CAMK1 (human),75.7%
same,residual activity,CDK4 CCND1 (human),106%
same,residual activity,CDK5 CDK5R1 p25 (human),58%
same,residual activity,CLK1 (human),88.3%
same,residual activity,CSNK1G2 (human),100%
same,residual activity,DYRK4 (human),73.7%
same,residual activity,EPHA5 (human),69.3%
same,residual activity,EPHB1 (human),68.7%
same,residual activity,EPHB3 (human),93.2%
same,residual activity,HIPK2 (human),82.6%
same,residual activity,IKBKE (human),21.9%
same,residual activity,JAK3 JH1 JH2 (human),43.7%
same,residual activity,MAP2K2 (human),94.7%
same,residual activity,MAP3K14 (human),123%
same,residual activity,MAP3K2 (human),92.1%
same,residual activity,MAP3K3 (human),80.7%
same,residual activity,MAP3K7 TAB1 (human),48.9%
same,residual activity,MAP4K4 (human),22.5%
same,residual activity,MAP4K5 (human),13.4%
same,residual activity,MAPK10 (human),93.1%
same,residual activity,MARK3 (human),57.2%
same,residual activity,MINK1 (human),53.7%
same,residual activity,PIM1 (human),96.5%
same,residual activity,PLK3 (human),99%
same,residual activity,PRKCA (human),123%
same,residual activity,PRKCB2 (human),86.7%
same,residual activity,PRKCH (human),102%
same,residual activity,PRKX (human),81%
same,residual activity,PTK6 (human),80.2%
same,residual activity,[1],71.8%
same,residual activity,SLK (human),28.6%
same,residual activity,SRPK1 (human),69%
same,residual activity,SRPK3 (human),88.5%
same,residual activity,STK16 (human),78.7%
same,residual activity,TBK1 (human),21.6%
same,residual activity,TEC (human),157%
same,residual activity,TTK (human),97.3%
same,residual activity,TYRO3 (human),90.5%
same,residual activity,WNK3 (human),99%
O=C1NC(=O)c2cc(Nc3ccc(F)cc3)c(Nc3ccc(F)cc3)cc21,residual activity,ACVR1 (human),92.3%
same,residual activity,ACVRL1 (human),95.9%
same,residual activity,AURKB (human),99.7%
same,residual activity,CAMK1 (human),104%
same,residual activity,CDK4 CCND1 (human),101%
same,residual activity,CDK5 CDK5R1 p25 (human),85.9%
same,residual activity,CLK1 (human),102%
same,residual activity,CSNK1G2 (human),97.5%
same,residual activity,DYRK4 (human),98.6%
same,residual activity,EPHA5 (human),95.4%
same,residual activity,EPHB1 (human),103%
same,residual activity,EPHB3 (human),94.7%
same,residual activity,HIPK2 (human),96.6%
same,residual activity,IKBKE (human),100%
same,residual activity,JAK3 JH1 JH2 (human),93.9%
same,residual activity,MAP2K2 (human),89.5%
same,residual activity,MAP3K14 (human),117%
same,residual activity,MAP3K2 (human),94.8%
same,residual activity,MAP3K3 (human),102%
same,residual activity,MAP3K7 TAB1 (human),98.8%
same,residual activity,MAP4K4 (human),91.2%
same,residual activity,MAP4K5 (human),89.5%
same,residual activity,MAPK10 (human),97.3%
same,residual activity,MARK3 (human),90.8%
same,residual activity,MINK1 (human),99%
same,residual activity,PIM1 (human),81.8%
same,residual activity,PLK3 (human),98%
same,residual activity,PRKCA (human),99.3%
same,residual activity,PRKCB2 (human),15.5%
same,residual activity,PRKCH (human),83.3%
same,residual activity,PRKX (human),103%
same,residual activity,PTK6 (human),95.1%
same,residual activity,[1],103%
same,residual activity,SLK (human),65.5%
same,residual activity,SRPK1 (human),102%
same,residual activity,SRPK3 (human),98%
same,residual activity,STK16 (human),85.8%
same,residual activity,TBK1 (human),101%
same,residual activity,TEC (human),102%
same,residual activity,TTK (human),95.4%
same,residual activity,TYRO3 (human),94.8%
same,residual activity,WNK3 (human),92.7%
